A value given as a limit tells only on which side of the number the result lay.

Chain of Adenosine receptor A2a (P29274 whole entry): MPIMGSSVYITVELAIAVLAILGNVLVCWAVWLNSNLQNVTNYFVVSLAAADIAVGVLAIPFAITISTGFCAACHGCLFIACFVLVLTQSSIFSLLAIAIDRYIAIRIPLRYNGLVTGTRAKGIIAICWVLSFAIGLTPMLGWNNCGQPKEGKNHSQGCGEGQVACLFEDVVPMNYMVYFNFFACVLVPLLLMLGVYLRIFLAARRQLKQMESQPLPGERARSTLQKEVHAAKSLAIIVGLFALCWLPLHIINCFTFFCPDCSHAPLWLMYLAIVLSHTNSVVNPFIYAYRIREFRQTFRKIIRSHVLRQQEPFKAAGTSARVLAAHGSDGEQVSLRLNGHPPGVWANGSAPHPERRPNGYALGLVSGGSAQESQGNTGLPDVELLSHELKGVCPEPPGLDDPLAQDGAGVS

The assay concerns the target Adenosine receptor A2a (Homo sapiens, UniProt P29274). The experiment in a line: Displacement of [3H]ZM241385 from human adenosine A2A receptor expressed in HEK293 cell membrane incubated for 1 hr by microplate beta scintillation counting based radioligand inhibition assay. The format is cell membranes. Background: In a radioligand displacement assay an active substance lowers the binding of a labelled ligand.
One may read the Ki as a dissociation constant, usually derived from enzyme kinetics or from competition with a known ligand. In the case of `c1ccc(CCNc2ncnc3ccccc23)cc1`, the Ki was more than 10000 nM.
Consider `Oc1nc(-c2ccccc2)c2ccccc2n1`, for which the Ki was more than 10000 nM.
Turning to `Clc1nc(-c2ccccc2)c2ccccc2n1`, the Ki was more than 10000 nM.
`c1ccc(-c2ncnc3ccccc23)cc1` displayed a Ki of 2300 nM.
Regarding `Nc1nc(Nc2ccccc2)c2ccccc2n1`, the inhibition constant Ki is more than 10000 nM.
The same measure for `Nc1nc(NCCc2ccccc2)c2ccccc2n1`: more than 10000 nM.
For `Nc1nc(NCc2ccccc2)c2ccccc2n1`, the inhibitory constant (Ki) was more than 10000 nM.
Take `Nc1nc(-c2ccccc2)nc2ccccc12`: the Ki was more than 10000 nM.
In turn, `Nc1nc(-c2ccccc2)c2ccccc2n1` displayed an inhibition constant (Ki) of 198 nM.
The same measure for `Nc1nc(-c2cccc(F)c2)c2ccccc2n1`: 174 nM; for `COc1cccc(-c2nc(N)nc3ccccc23)c1`: 708 nM; for `NCc1nc(-c2ccccc2)c2ccccc2n1`: more than 10000 nM.
As for `Nc1nc(CCc2ccccc2)c2ccccc2n1`, the Ki was more than 10000 nM.
The figure for `Nc1nc(-c2ccoc2)c2ccccc2n1` is 696 nM; for `C(#Cc1ncnc2ccccc12)c1ccccc1` it is 4000 nM.
The same measure for `N#Cc1cccc(-c2nc(N)nc3ccccc23)c1`: 586 nM.
The figure for `Cc1cccc(C)c1-c1nc(N)nc2ccccc12` is more than 10000 nM; for `Cc1ccccc1-c1nc(N)nc2ccccc12` it is 3300 nM.
For `NCc1nc(-c2ccco2)c2ccccc2n1`, the Ki is more than 10000 nM.
With `Nc1nc(-c2ccccc2[N+](=O)[O-])c2ccccc2n1`, the Ki was more than 10000 nM.
Consider `Nc1nc(-c2ccccc2N)c2ccccc2n1`, for which the affinity corresponds to a Ki of 2000 nM.
The figure for `NCc1nc(NCCc2ccccc2)c2ccccc2n1` is more than 10000 nM.
On to `Nc1nc(-c2ccco2)c2ccccc2n1`, for which the Ki was determined as 89 nM.
`Cc1ccc(-c2nc(N)nc3ccccc23)cc1` came in with a Ki of 1500 nM. This Ki lies about 17-fold higher than the previous one.
The same measure for `Nc1nc(-c2cccs2)c2ccccc2n1`: 171 nM; for `CC(C)(C)c1ccc(-c2nc(N)nc3ccccc23)cc1`: more than 10000 nM.
Compound `COc1ccccc1-c1nc(N)nc2ccccc12` displayed a Ki of 651 nM.
The same measure for `Nc1nc(-c2ccccc2F)c2ccccc2n1`: 456 nM; for `Nc1nc(-c2ccc(F)cc2)c2ccccc2n1`: 80 nM; for `COc1ccc(-c2nc(N)nc3ccccc23)cc1`: 736 nM.

The values above are taken from ChEMBL document CHEMBL5108007, “High ligand efficiency quinazoline compounds as novel A2A adenosine receptor antagonists” (Eur J Med Chem, 2022).
